Laboratory results from paper PMC7769008 (Journal of medicinal chemistry, 2020).

Key:
HeLa cells = conditions: 100 μM
[1] = pH 7.4

Row | SMILES | ability to induce mitotic arrest and an antiproliferation effect (HeLa cells) | PAMPA [1] [×10⁻⁶ cm/s]
1 | CCCn1c(=O)c2cccc(F)c2n2c(=S)[nH]nc12 [Compound 139, 9-Fluoro-4-propyl-1-thioxo-2,4-dihydro-[1,2,4]triazolo[4,3-a]-quinazolin-5(1H)-one] | lacked a detectable level of cellular response | 
2 | CCCn1c(=O)c2cc(F)ccc2n2c(SC)nnc12 [Compound 144, 7-Fluoro-1-(methylthio)-4-propyl-[1,2,4]triazolo[4,3-a]-quinazolin-5(4H)-one] | induced mitotic arrest but at a somewhat reduced level | 
3 | CC(C)(C)OC(=O)Nc1ccc(CC(=O)NCCCn2c(=O)c3cc(F)ccc3n3c(=S)[nH]nc23)cc1 [Compound 135, tert-Butyl (4-(2-((3-(7-Fluoro-5-oxo-1-thioxo-1,2-dihydro-[1,2,4]-triazolo[4,3-a]quinazolin-4(5H)-yl)propyl)amino)-2-oxoethyl)-phenyl)carbamate] |  | 910
4 | O=C(NCCCn1c(=O)c2cc(F)ccc2n2c(=S)[nH]nc12)c1ccccc1 [Compound 74, N-(3-(7-Fluoro-5-oxo-1-thioxo-1,2-dihydro-[1,2,4]triazolo[4,3-a]-quinazolin-4(5H)-yl)propyl)benzamide] |  | 267
5 | O=C(Cc1ccccn1)NCCCn1c(=O)c2cc(F)ccc2n2c(=S)[nH]nc12 [Compound 136, N-(3-(7-Fluoro-5-oxo-1-thioxo-1,2-dihydro-[1,2,4]triazolo[4,3-a]-quinazolin-4(5H)-yl)propyl)-2-(pyridine-2-yl)acetamide] |  | 68.0
6 | Cc1ccc(CC(=O)NCCCn2c(=O)c3cc(F)ccc3n3c(=S)[nH]nc23)cc1 [Compound 126, N-(3-(7-Fluoro-5-oxo-1-thioxo-1,2-dihydro-[1,2,4]triazolo[4,3-a]-quinazolin-4(5H)-yl)propyl)-2-(p-tolyl)acetamide] |  | 621
7 | CC(C)(C)OC(=O)NCCCCCC(=O)NCCCn1c(=O)c2cc(F)ccc2n2c(=S)[nH]nc12 [Compound 101, tert-Butyl (6-((3-(7-fluoro-5-oxo-1-thioxo-1,2-dihydro-[1,2,4]-triazolo[4,3-a]quinazolin-4(5H)-yl)propyl)amino)-6-oxohexyl)-carbamate] |  | 405
8 | CN1CCN(CC(=O)NCCCn2c(=O)c3cc(F)ccc3n3c(=S)[nH]nc23)CC1 [Compound 117, N-(3-(7-Fluoro-5-oxo-1-thioxo-1,2-dihydro-[1,2,4]triazolo[4,3-a]-quinazolin-4(5H)-yl)propyl)-2-(4-methylpiperazin-1-yl)acetamide] |  | <1
9 | CC(=O)NCCCn1c(=O)c2cc(F)ccc2n2c(=S)[nH]nc12 [Compound 73, N-(3-(7-Fluoro-5-oxo-1-thioxo-1,2-dihydro-[1,2,4]triazolo[4,3-a]-quinazolin-4(5H)-yl)propyl)acetamide] |  | 18.0
10 | O=C(Cc1ccncc1)NCCCn1c(=O)c2cc(F)ccc2n2c(=S)[nH]nc12 [Compound 138, N-(3-(7-Fluoro-5-oxo-1-thioxo-1,2-dihydro-[1,2,4]triazolo[4,3-a]-quinazolin-4(5H)-yl)propyl)-2-(pyridine-4-yl)acetamide] |  | <1
11 | CNC(=S)N1CN(CCc2ccccc2)C(=O)c2cc(F)ccc21 [Compound 62, 6-Fluoro-N-methyl-4-oxo-3-phenethyl-3,4-dihydroquinazoline-1(2H)-carbothioamide] |  | 161
12 | O=C(Cc1cccc(F)c1)NCCCn1c(=O)c2cc(F)ccc2n2c(=S)[nH]nc12 [Compound 122, N-(3-(7-Fluoro-5-oxo-1-thioxo-1,2-dihydro-[1,2,4]triazolo[4,3-a]-quinazolin-4(5H)-yl)propyl)-2-(3-fluorophenyl)acetamide] |  | 364
13 | CCn1c(=O)c2ccccc2n2c(=S)[nH]nc12 [Compound 20, 4-Ethyl-1-thioxo-2,4-dihydro-[1,2,4]triazolo[4,3-a]quinazolin-5(1H)-one] |  | 427
